The values that follow come from US20250099553A1, “COMPOSITION AND METHODS FOR MODULATION OF ELOVL2” (YOUHEALTH BIOTECH, LIMITED, priority 2018, published 2025).

Experiment [1] relates to Elovl2 knock-down human RPE cells (KE). The experiment in a line: Drug rescue of Elovl2 knockdown (KE) human RPE cells, AMD phenotype (immunofluorescence, qPCR). It is filed as cell-based. Conditions: 5 mM nicotinamide, 48 h, FIGS. 5I-5J. The procedure:
For Elovl2 knockdown, lentivector (pLL3.7-shElovl2) exogenously expressing shRNA (5′-[…]-3′) was made and transfected into 293T cells (ATCC) using Lipofectamin 3000 reagent (Thermo Fisher) to obtain lentivirus. To build the Elovl2-knockdown cell line, human RPE cells (seeded a night ahead in a concentration of 5*10^5 cells/well) in a 6-well plate were infected with the lentivirus containing Elovl2-shRNA for 24h, followed by 24 h of equilibration. Drug treatments were performed at the time of 48 h post-infection. To rescue the Elovl2 knockdown cells, 10 μg/ml curcumin (Sigma, C7727) or 5 mM nicotinamide (Sigma, N0636) or DMSO were added in the cell culture medium and the cells were treated for 48 h.
Murine tissue sample were freshly collected upon perfusion, followed by overnight PFA fixation and sucrose dehydration. Human fibroblast cells, human RPE cells and murine primary cells were fixed with 4% PFA for 1 h. To perform immunofluorescence, the slide was rinsed in PBS for 5 minutes, blocked in blocking buffer (PBS with 1% BSA, 0.1% Tween-20) for 20 minutes at room temperature (RT), and incubated with primary antibody in blocking buffer for 1 hour at RT. After 3 washes with 0.1% Tween-20 in PBS, the slide was incubated with secondary antibody in blocking buffer for 1 hour at RT. The slides were mounted with DAPI-Vectashield solution (Vector laboratories). Images were taken with a confocal microscope (LSM 780). To estimate the mitochondrial conditions, human RPE cells and murine primary cells were incubated with either MitoSOX (5 uM) according to manufacturer's instructions.

In another experiment the test system is human fibroblast cells. The procedure:
The human RPE cells were primarily derived from healthy donors. The human fibroblast cells are purchased from ATCC (WI-38, ATCC® CCL-75) human fibroblasts were maintained in Dulbecco's Modified Eagle Medium (DMEM) supplemented with 10% fetal bovine serum and 50 U/ml penicillin-streptomycin. Human RPE cells were cultured with DMEM/F-12 (1:1) supplemented with 10% fetal bovine serum and 50 U/ml penicillin-streptomycin.
RNA was extracted by RNeasy Mini Kit (QIAGEN, 74104) and the RNase-Free DNase Set (QIAGEN, 79254) was used to ensure no DNA contamination. Reverse transcription was performed by High Capacity cDNA Reverse Transcription Kit (ABI, 4368814). SYBR-qPCR was performed by Power SYBR® Green PCR Master Mix (ABI, 4367659). All primers were designed using PrimerPremier5 and synthesized from Integrated DNA Technologies.

With `NC(=O)c1cccnc1` [nicotinamide], in experiment [1], the AMD markers result is recorded as “reduction of AMD markers”, the “expression of cellular senescence genes” value was “reversed the abnormal expression of cellular senescence genes” and the mitochondrial dysfunction entry is reported as “reduced mitochondrial dysfunction”.

Regarding `OO` [H2O2, hydrogen peroxide], in the experiment with human fibroblast cells (H2O2 treated human fibroblast cells, MeDip-qPCR), the “methylation on biological aging marker Elovl2” value is listed as “Increased methylation”. Besides, the senescent markers entry with human fibroblast cells (H2O2 treated human fibroblast cells, FIGS. 1D-1E, 6E-6F) is “increase of senescent markers”. For the same compound, the “expression of Elovl2” value with human fibroblast cells (after H2O2 treatment, groups with DNMT1, DNMT3A and DNMT3B knockdown but not CHD4 knockdown, FIG. 6H) is “decreased”.
